Measurements taken from patent US20250382330A1, “IMMUNOLOGICALLY ACTIVE POLYPEPTIDE” (CDRES PHARMA LLC, priority 2022, published 2025).
Entries after “also recorded” stand apart in the source; their conditions may differ. Read-outs that look alike come from different tables or passages of the source. Values belong to the molecule of their own block, whether it stands above or below them. Ends that are not written are not given here.

Key:
[1] = Solubility of peptideX2-13 modifications in aqueous buffer; type: physicochemical; conditions: for solubility, comparative: modification (10) vs peptideX2-13, modification (11) vs (10), reversed core sequence
Experimental: Various modifications of peptideX2-13 were tested for solubility (see Table 2).

[2] = first renal transplantations, cited from earlier work
[3] = test system: collagen-induced arthritis in Lewis rats; assay: Collagen-induced arthritis in Lewis rats, daily arthritis index; type: in vivo, Lewis rat; conditions: positive control, 10 mg/kg/day
Experimental: A. Collagen-Induced Lewis Rat Model of Rheumatoid Arthritis (RA)-PeptideX2 (SEQ ID NO: 1). The Lewis rat system is an art-accepted in vivo animal model of collagen-induced rheumatoid arthritis. Lewis rats obtained from a commercial laboratory supply vendor were maintained during a quarantine period under standard animal care conditions and found to be free of any clinical signs of disease or distress. Bovine type II collagen (10 mg, Chondrex, Inc., Redmond, WA) was dissolved in 2.5 ml 0.1M acetic acid and stirred overnight at 4-8° C. in the dark, and then one ml of this collagen solution was emulsified in one ml of incomplete Freund's adjuvant (ICFA, Sigma, St. Louis, MO) on an ice bath. On day zero, each of five rats was injected with 0.2 ml of collagen/ICFA emulsion at two sites and then observed for the next 30 days with the arthritis index (AI) calculated daily using the 16-point scoring method of Bevaart et al. (2010 Meths. Mol. Biol. 602:181: 0 points, no joint swelling or edema; 1 point, slight edema and erythema limited to foot and/or ankle; 2 points, edema and erythema in the toes and most ankle joints; 3 points, severe edema and erythema in the paw below the ankle joint; 4 points, edema and erythema of all four paws including the ankle joint). […]
6 Lewis rats (ENVIGO, female, 190-210g) were received, individually examined, and housed. […] Rat weights were recorded daily. […]

[4] = Tolerability / adverse effects of intravenous dosing in the Lewis rat RA model; type: in vivo; conditions: for adverse effects: 500 μg/ml, intravenous
Experimental: On day 15, the rats were divided into treatment groups and were dosed intravenously on a daily basis for the next 15 days (except as noted) with the pentide YLQMN (SEQ ID NO: 5)-containing PeptideX2 (SEQ ID NO: 1) to achieve final circulating concentrations of PeptideX2 peptide as follows: 0 μg/ml (vehicle control: 0.2% acetic acid-Dulbecco's phosphate buffered saline (PBS-D), pH 6.0); 100 μg/ml vehicle; 200 μg/ml vehicle, and 500 μg/ml vehicle per rat/per day. As a positive control for anti-inflammatory activity, daily dosing of a control rat with prednisolone at 10 mg/kg/day was used. The arthritis index was calculated daily for each viable rat throughout the 30-day study.
B. Stability, aggregation, and toxicity of the pentide YLQMN (SEQ ID NO: 5)-containing polypeptides PeptideX2 (SEQ ID NO: 1) and G2-PeptideX2 (SEQ ID NO: 2).
Eleven Lewis rats were prepared using the collagen induced arthritis protocol. At day 15 thru day 30, three rats were given daily dosing of PeptideX2-13 (SEQ ID NO: 3) at 100 μg/ml, three rats were given daily dosing of PeptideX2-13 (SEQ ID NO: 3) at 250 μg/ml, and three rats were given daily dosing of PeptideX2-13 (SEQ ID NO: 3) at 500 μg/ml; as a positive control group, two rats were given prednisolone at 10 mg/kg/day.
The rats were weighed, scored for signs of arthritis and assigned to various treatment groups of one or more rats to each group. For the prednisolone control group, 200.85 mg prednisolone 21-hemisuccinate sodium salt (Sigma, Cat. P4153) was dissolved in 15 ml de-ionized water to prepare a 10 mg/ml solution which was stored at 4-8° C. when not in use. Rats in the study groups were dosed daily from day 15 through day 30 according to the formula for which a rat weighing (g)×64 ml/1000 g (represents the total blood volume) multiplied by the test product dose/test product concentration to determine the total volume to be injected into the animal per day to achieve that desired estimated blood concentration. Rats were weighed and scored daily during the treatment phase of the experiment and the results recorded and reported.

human TLR2 [5] = biological target: T1, human TLR2 (human, UniProt O60603 21-784); assay: NF-κB SEAP reporter in HEK293 cells expressing human TLR2, 200 µg/ml (FIG. 6); binding inferred from reporter activity
T1 construct: whole, on cells; Expressed in HEK293 NF-κB/SEAP reporter cells; also called hTLR2; toll-like receptor 2
Experimental: Human Toll-like receptor ligand screening was performed using test samples containing a peptide of interest at 200 μg/ml. The general procedure consisted of testing for NF-κB activation in HEK293 cells expressing a given TLR. The samples were tested against seven different human TLRs (TLR2, 3, 4, 5, 7, 8, 9). The media added to the wells were designed for the detection of NF-κB induced SEAP (secreted embryonic alkaline phosphatase) expression. After 16-24 hours of incubation, the optical density (OD) was read at 650 nm on a Molecular Devices SpectraMax 340PC absorbance detector.

human TLR2 [6] = biological target: T1, human TLR2; assay: NF-κB SEAP reporter on human TLR panel; binding inferred from reporter activity
[7] = buffer (0.2% acetic acid, 0.375M Hepes, 0.375% glycerol, pH 7), no concentration stated

T1 sequence (O60603 21-784): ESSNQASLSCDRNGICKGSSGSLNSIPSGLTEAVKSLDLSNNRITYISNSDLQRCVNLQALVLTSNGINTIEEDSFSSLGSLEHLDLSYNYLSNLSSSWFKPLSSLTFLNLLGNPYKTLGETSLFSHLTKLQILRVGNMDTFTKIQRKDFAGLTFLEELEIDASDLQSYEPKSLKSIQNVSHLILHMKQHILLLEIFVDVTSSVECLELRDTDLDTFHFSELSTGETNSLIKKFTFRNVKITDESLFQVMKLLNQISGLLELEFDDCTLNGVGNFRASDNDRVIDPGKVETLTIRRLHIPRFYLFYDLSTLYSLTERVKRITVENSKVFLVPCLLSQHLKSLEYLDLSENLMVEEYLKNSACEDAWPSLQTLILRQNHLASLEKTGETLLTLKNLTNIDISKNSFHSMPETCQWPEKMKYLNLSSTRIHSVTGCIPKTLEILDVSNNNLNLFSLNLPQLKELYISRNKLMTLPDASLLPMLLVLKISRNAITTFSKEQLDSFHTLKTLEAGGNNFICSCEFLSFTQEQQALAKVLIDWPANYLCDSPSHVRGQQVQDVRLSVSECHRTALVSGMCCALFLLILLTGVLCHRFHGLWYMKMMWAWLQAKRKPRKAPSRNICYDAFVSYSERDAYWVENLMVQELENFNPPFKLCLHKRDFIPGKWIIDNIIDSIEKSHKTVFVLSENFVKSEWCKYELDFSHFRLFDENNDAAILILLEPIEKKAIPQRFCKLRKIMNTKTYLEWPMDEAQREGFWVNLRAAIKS

- Solubility ([1]; buffer, at 2 mg/ml): Soluble in buffer
Molecule: GKYLQMNKG [SEQ ID NO: 22]

Molecule: C=CC[C@@H]1/C=C(\C)C[C@H](C)C[C@H](OC)[C@H]2O[C@@](O)(C(=O)C(=O)N3CCCC[C@H]3C(=O)O[C@H](/C(C)=C/[C@@H]3CC[C@@H](O)[C@H](OC)C3)[C@H](C)[C@@H](O)CC1=O)[C@H](C)C[C@@H]2OC [TAC, tacrolimus]
- graft survival rate ([2]; 5 years post-transplant): 77%
- graft survival rate ([2]; 10 years post-transplant): 60%

Molecule: C[C@]12C=CC(=O)C=C1CC[C@@H]1[C@@H]2[C@@H](O)C[C@@]2(C)[C@H]1CC[C@]2(O)C(=O)CO [prednisolone]
- arthritis index [3]: potent and sustained reduction of the arthritis index; also recorded: decreased

- Solubility ([1]; buffer, at 2 mg/ml): Soluble in buffer
Molecule: GKAYLQMNAKG [SEQ ID NO: 13]

- Solubility ([1]; buffer, at 2 mg/ml): Soluble in buffer
Molecule: GRAAYLQMNAARG [K2R/K12R-substituted PeptideX2-13]

- Solubility ([1]; buffer, at 2 mg/ml): Soluble in buffer
Molecule: PKAAYLQMNAAKP [SEQ ID NO: 12]

Molecule: Cn1cnc([N+](=O)[O-])c1Sc1ncnc2nc[nH]c12 [AZA, azathioprine]
- graft survival rate ([2]; 5 years post-transplant): 56%
- graft survival rate ([2]; 10 years post-transplant): 46%

Molecule: GKAAYLQMNAAKG [PeptideX2-13]
- Solubility [1, 7]: Soluble in buffer
- tolerability in animal model compared with PeptideX2 ([4]; summary statement): tolerated and not toxic at a certain higher concentrations than was the case for previously described PeptideX2

Molecule: YLQMN [pentide, YLQMN]
- adverse effects [4]: No adverse effects

- Solubility ([1]; at 5 mg/ml concentration): Insoluble at
- solubility, comparative [1]: no significant difference
Molecule: GRSSANMQLYASSRG [modification (11)]

Molecule: KSIAYLQMNSLK [PeptideX2, reference compound]
- adverse effects [4]: went into respiratory distress and died immediately
- outcome (death) ([4]; single IV dose to achieve 300 μg/ml, thirty-eight minutes after injection): went into convulsions again and died

- Solubility ([1]; at 5 mg/ml concentration): Insoluble at
- solubility, comparative [1]: less solubility compared to peptideX2-13
Molecule: GRSSAYLQMNASSRG [modification (10)]

- Solubility [1, 7]: insoluble in aqueous buffer
Molecule: GYLQMNG [modification (7), GYLQMNG]

- Solubility ([1]; buffer, at 2 mg/ml): Soluble in buffer
Molecule: GKAANMQLYAAKG [SEQ ID NO: 17]

- binding result (human TLR2 [5]): binds
B1: reverse modified peptideX2 (NMQLY) (peptide)
peptide: NMQLY
notes: Printed as NMQLY; also called reverse core; reverse-peptideX2

- binding result (human TLR2 [6]): binds
Molecule: KSIAYLQMNSLK [PeptideX2 (KSIAYLQMNSLK)]
